Test results published in publication PMC10382584, “Macrocyclization of linear molecules by deep learning to facilitate macrocyclic drug candidates discovery” (Nature Communications, 2023).

Key:
Assay in all cases: biochemical
Design in all cases: DiscoveRx KINOMEscan competition binding, percent of DMSO control signal at 100 nM
Settings in all cases: read-out: Fig. 4a / Percent Control / Compound 1; percent of DMSO control, competition binding
PIK3CA(H1047L) = PIK3CA(H1047L) (Homo sapiens, UniProt P42336, H1047L)
YSK1 = molecular target: T1, YSK1 (Homo sapiens, UniProt O00506)
T1 construct: gene STK25

KIT(D816H) = KIT(D816H) (Homo sapiens, UniProt P10721, D816H)
TYRO3 = TYRO3 (Homo sapiens, UniProt Q06418)
ADCK4 = molecular target: T2, ADCK4 (Homo sapiens, UniProt Q96D53)
T2 construct: gene COQ8B

DRAK2 = molecular target: T3, DRAK2 (Homo sapiens, UniProt O94768)
T3 construct: gene STK17B

CDK4-cyclinD1 = molecular target: T4, CDK4-cyclinD1 (Homo sapiens, UniProt P11802)
T4 construct: cyclinD1

HIPK2 = HIPK2 (Homo sapiens, UniProt Q9H2X6)
STK36 = STK36 (Homo sapiens, UniProt Q9NRP7)
PFTK1 = molecular target: T5, PFTK1 (Homo sapiens, UniProt O94921)
T5 construct: gene CDK14

YANK1 = molecular target: T6, YANK1 (Homo sapiens, UniProt Q8WU08)
T6 construct: gene STK32A

CSNK1A1 = CSNK1A1 (Homo sapiens, UniProt P48729)
RIPK5 = molecular target: T7, RIPK5 (Homo sapiens, UniProt Q6XUX3)
T7 construct: gene DSTYK

PHKG1 = PHKG1 (Homo sapiens, UniProt Q16816)
TLK1 = TLK1 (Homo sapiens, UniProt Q9UKI8)
[1] = molecular target: T8, ABL1(T315I)-nonphosphorylated (Homo sapiens, UniProt P00519, T315I)
T8 construct: nonphosphorylated

[2] = molecular target: T9, JAK1(JH1domain-catalytic) (Homo sapiens, UniProt P23458)
T9 construct: JH1domain-catalytic

FLT3(R834Q) = FLT3(R834Q) (Homo sapiens, UniProt P36888, R834Q)
CAMKK2 = CAMKK2 (Homo sapiens, UniProt Q96RR4)
AAK1 = AAK1 (Homo sapiens, UniProt Q2M2I8)
ALK(C1156Y) = ALK(C1156Y) (Homo sapiens, UniProt Q9UM73, C1156Y)
MYO3A = MYO3A (Homo sapiens, UniProt Q8NEV4)
CSNK2A2 = CSNK2A2 (Homo sapiens, UniProt P19784)
TNK2 = TNK2 (Homo sapiens, UniProt Q07912)
ULK1 = ULK1 (Homo sapiens, UniProt O75385)
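Further: KINOMEscan kinase panel binding assay, signal normalized between DMSO as 100% and a positive control compound as 0%.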

Chain of HIPK2 (Q9H2X6 whole entry): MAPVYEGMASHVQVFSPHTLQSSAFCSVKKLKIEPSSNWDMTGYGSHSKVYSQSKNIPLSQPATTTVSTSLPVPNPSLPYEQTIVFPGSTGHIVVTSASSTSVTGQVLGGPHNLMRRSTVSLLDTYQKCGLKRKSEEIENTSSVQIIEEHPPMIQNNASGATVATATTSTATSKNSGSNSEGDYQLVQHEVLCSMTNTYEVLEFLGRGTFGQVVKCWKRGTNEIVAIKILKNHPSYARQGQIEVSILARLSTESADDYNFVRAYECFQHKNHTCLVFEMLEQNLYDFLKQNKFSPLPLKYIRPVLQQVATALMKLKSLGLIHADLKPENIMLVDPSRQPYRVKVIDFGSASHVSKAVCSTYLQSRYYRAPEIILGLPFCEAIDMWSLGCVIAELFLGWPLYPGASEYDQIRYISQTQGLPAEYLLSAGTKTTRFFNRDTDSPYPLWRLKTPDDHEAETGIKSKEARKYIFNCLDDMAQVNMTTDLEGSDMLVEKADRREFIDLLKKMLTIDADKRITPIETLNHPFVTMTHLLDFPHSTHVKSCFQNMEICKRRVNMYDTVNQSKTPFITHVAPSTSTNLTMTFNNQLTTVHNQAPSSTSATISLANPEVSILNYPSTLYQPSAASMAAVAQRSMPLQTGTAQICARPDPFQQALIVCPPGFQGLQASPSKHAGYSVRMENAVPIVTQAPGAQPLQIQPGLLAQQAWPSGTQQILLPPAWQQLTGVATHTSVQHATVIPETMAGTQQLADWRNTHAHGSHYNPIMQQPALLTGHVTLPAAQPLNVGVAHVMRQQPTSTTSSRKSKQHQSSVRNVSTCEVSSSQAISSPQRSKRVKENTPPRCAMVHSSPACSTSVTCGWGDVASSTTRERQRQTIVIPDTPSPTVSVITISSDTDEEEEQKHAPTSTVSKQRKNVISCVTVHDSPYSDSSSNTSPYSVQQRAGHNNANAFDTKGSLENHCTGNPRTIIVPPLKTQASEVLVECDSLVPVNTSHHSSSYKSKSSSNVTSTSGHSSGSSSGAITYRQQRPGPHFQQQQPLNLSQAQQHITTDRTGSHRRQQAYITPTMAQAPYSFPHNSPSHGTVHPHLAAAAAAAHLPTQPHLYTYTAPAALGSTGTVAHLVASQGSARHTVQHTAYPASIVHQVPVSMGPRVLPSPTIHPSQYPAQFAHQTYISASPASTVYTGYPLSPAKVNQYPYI
T1 sequence (O00506 whole entry): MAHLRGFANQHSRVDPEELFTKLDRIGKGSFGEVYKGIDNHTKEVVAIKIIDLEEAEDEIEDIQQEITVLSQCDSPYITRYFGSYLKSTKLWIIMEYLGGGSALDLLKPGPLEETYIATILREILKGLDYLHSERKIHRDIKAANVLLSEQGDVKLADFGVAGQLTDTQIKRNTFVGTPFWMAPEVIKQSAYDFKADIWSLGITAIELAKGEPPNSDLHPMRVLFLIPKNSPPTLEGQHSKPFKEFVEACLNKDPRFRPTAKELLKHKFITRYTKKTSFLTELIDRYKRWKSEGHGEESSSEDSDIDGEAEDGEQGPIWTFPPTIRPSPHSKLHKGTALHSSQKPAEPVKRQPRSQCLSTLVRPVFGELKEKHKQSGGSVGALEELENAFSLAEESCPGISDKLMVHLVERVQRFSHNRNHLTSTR
T3 sequence (O94768 whole entry): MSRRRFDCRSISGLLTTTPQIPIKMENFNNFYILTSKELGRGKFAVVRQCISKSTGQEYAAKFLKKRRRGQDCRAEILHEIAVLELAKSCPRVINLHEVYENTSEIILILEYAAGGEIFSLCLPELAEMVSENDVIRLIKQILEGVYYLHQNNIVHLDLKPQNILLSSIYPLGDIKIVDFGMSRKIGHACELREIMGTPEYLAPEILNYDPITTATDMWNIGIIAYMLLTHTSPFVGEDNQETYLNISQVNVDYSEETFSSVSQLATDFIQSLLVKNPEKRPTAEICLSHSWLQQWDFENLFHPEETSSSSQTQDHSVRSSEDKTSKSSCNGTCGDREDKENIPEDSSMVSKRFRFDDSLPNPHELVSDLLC
Chain of ULK1 (O75385 whole entry): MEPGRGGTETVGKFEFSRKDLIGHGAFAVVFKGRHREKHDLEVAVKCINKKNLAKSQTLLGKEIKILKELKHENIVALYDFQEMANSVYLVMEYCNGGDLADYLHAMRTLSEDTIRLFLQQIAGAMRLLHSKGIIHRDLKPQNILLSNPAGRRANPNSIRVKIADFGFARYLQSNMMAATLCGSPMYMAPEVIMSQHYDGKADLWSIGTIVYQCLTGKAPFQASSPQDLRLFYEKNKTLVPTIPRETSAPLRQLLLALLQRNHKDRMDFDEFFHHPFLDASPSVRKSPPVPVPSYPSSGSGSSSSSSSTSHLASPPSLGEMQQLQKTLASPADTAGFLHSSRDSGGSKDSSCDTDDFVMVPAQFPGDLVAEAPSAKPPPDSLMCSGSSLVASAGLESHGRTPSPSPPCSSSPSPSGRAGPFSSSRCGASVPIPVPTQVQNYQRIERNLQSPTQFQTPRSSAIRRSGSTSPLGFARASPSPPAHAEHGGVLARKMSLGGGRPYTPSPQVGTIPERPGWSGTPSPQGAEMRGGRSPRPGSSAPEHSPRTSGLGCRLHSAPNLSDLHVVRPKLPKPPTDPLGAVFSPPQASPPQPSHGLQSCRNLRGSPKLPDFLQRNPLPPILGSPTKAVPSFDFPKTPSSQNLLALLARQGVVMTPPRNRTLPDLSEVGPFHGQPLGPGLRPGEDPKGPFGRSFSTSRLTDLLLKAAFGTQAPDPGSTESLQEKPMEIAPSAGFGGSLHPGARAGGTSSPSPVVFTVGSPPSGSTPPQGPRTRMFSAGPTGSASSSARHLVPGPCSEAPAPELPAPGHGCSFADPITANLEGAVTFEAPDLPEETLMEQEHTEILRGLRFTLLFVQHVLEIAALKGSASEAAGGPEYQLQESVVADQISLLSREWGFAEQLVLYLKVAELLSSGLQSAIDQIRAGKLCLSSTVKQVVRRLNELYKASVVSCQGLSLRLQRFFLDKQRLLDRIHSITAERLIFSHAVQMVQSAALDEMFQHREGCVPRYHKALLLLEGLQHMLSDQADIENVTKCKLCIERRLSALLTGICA
Chain of TLK1 (Q9UKI8 whole entry): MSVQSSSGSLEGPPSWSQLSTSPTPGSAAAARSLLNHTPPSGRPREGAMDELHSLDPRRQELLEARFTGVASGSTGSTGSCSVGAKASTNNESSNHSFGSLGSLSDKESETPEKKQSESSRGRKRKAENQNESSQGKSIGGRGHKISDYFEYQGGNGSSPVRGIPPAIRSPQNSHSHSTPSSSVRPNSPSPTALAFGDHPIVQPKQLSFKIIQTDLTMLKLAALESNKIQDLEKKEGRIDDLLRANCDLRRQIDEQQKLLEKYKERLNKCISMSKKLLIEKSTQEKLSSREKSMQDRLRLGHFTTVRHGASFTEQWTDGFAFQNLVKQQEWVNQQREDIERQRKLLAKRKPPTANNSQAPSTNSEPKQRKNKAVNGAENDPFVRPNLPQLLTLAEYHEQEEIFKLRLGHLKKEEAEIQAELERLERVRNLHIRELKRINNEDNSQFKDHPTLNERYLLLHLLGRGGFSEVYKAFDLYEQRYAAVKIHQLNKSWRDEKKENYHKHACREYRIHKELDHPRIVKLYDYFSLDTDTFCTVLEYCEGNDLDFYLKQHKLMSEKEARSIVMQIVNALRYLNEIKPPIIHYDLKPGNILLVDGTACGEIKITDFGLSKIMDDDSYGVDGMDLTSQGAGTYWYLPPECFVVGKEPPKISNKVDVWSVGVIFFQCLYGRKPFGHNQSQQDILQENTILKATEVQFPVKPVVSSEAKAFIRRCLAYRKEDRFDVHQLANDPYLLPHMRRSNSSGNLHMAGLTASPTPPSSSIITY
Chain of CAMKK2 (Q96RR4 whole entry): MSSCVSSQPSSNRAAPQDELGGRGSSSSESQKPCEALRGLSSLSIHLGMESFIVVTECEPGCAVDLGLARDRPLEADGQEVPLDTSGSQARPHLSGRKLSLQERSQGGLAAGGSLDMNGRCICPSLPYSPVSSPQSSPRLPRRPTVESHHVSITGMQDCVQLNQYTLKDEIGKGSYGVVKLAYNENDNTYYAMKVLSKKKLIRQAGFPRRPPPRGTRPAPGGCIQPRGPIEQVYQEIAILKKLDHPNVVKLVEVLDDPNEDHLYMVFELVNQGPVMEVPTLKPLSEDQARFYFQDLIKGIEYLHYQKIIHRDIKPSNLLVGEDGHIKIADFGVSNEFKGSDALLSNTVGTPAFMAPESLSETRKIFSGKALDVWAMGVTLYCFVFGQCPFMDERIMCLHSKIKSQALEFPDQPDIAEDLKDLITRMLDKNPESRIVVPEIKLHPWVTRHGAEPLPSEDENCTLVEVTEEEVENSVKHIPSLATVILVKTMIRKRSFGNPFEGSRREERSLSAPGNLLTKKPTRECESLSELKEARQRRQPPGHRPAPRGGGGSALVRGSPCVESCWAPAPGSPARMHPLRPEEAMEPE
T2 sequence (Q96D53 whole entry): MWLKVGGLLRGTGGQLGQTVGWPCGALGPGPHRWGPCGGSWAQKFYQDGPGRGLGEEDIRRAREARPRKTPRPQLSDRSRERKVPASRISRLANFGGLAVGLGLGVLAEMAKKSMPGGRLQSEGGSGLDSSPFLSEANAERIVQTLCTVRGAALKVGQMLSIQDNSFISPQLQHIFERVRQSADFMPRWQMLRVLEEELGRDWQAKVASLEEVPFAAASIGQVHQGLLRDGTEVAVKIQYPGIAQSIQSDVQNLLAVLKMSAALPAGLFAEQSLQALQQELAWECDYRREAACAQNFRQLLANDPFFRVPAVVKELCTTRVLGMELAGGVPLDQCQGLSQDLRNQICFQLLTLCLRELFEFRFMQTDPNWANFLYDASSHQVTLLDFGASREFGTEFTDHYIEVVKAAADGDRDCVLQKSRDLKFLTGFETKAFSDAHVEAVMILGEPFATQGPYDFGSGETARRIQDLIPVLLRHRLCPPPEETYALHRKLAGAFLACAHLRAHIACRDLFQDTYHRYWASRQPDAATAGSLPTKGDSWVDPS

Cc1cnc2nc1Nc1cccc(c1)COCc1cc(ccc1OCCN1CCCC1)N2 [Compound 1]
remaining binding at 0.1 µM (PIK3CA(H1047L)): 74% | remaining binding at 0.1 µM (YSK1): 91% | remaining binding at 0.1 µM (KIT(D816H)): 60% | remaining binding at 0.1 µM (TYRO3): 55% | remaining binding at 0.1 µM (ADCK4): 61% | remaining binding at 0.1 µM (DRAK2): 100% | remaining binding at 0.1 µM (CDK4-cyclinD1): 76% | remaining binding at 0.1 µM (HIPK2): 100% | remaining binding at 0.1 µM (STK36): 97% | remaining binding at 0.1 µM (PFTK1): 84% | remaining binding at 0.1 µM (YANK1): 73% | remaining binding at 0.1 µM (CSNK1A1): 95% | remaining binding at 0.1 µM (RIPK5): 93% | remaining binding at 0.1 µM (PHKG1): 87% | remaining binding at 0.1 µM (TLK1): 100% | remaining binding at 0.1 µM [1]: 80% | remaining binding at 0.1 µM [2]: 32% | remaining binding at 0.1 µM (FLT3(R834Q)): 23% | remaining binding at 0.1 µM (CAMKK2): 96% | remaining binding at 0.1 µM (AAK1): 81% | remaining binding at 0.1 µM (ALK(C1156Y)): 40% | remaining binding at 0.1 µM (MYO3A): 100% | remaining binding at 0.1 µM (CSNK2A2): 62% | remaining binding at 0.1 µM (TNK2): 86% | remaining binding at 0.1 µM (ULK1): 52%
